Source: ChEMBL document CHEMBL5316283, “Discovery of High-Affinity Small-Molecule Binders of the Epigenetic Reader YEATS4” (J Med Chem, 2023)

How the values were obtained:
[1] = target: T1, YEATS domain-containing protein 4 (Homo sapiens, UniProt O95619); assay: Binding affinity to human his-tagged recombinant YEATS4 expressed in Escherichia coli assessed as inhibition constant using biotin tagged lysine 27-crotonylated histone H3 peptide as substrate preincubated for 20 mins followed by substrate addition measured after 30 mins by FRET analysis
T1 sequence (O95619 whole entry, the tested form may be a part): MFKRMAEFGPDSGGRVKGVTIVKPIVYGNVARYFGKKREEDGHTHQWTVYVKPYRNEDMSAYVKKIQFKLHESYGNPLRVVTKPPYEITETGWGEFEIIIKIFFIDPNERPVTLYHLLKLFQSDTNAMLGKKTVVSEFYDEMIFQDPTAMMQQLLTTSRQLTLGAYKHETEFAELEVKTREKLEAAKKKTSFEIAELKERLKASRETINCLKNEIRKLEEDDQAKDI

[2] = Apparent permeability in dog RRCK cells; assay type: ADME, cell-based, Canis lupus familiaris, MDCKII-LE; conditions: MDCK
[3] = Intrinsic clearance in human hepatocytes assessed per million cells; assay type: ADME, cell-based, Hepatocyte; conditions: read-out: CLH
[4] = target: Voltage-gated inwardly rectifying potassium channel KCNH2 (Homo sapiens, UniProt Q12809); assay: Inhibition of hERG assessed as inhibition constant by patch-clamp assay; assay type: toxicity
Voltage-gated inwardly rectifying potassium channel KCNH2, sequence (Q12809 whole entry): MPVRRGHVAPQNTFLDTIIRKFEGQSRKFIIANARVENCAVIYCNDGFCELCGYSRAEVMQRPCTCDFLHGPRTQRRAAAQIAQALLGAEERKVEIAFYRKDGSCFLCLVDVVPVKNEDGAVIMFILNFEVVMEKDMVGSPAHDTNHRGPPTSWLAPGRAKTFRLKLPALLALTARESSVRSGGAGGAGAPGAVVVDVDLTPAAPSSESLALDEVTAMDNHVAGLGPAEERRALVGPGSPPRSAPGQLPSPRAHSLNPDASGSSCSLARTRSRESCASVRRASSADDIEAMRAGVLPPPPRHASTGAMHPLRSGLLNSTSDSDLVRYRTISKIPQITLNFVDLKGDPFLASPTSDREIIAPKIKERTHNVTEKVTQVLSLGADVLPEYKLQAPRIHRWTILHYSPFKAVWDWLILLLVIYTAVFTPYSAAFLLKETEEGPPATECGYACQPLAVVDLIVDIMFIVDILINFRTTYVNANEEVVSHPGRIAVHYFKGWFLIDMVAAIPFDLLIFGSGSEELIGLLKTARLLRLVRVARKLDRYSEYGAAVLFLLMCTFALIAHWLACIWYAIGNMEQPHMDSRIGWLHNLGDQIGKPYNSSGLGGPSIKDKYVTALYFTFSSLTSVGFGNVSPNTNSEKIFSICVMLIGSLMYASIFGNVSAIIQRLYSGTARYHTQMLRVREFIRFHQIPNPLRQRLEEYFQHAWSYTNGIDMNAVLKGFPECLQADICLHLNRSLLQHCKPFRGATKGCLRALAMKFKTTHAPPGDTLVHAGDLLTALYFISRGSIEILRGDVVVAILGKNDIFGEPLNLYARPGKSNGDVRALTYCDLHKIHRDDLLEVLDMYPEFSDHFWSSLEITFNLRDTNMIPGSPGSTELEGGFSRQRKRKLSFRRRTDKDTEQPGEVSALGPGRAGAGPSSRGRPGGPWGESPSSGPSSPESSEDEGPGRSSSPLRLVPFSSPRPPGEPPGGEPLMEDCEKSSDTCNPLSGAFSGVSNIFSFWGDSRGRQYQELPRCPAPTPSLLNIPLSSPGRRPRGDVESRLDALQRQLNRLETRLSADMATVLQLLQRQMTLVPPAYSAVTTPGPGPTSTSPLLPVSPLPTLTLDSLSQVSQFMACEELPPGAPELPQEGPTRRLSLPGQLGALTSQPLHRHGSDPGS

[5] = Cytotoxicity against human THLE cells assessed as inhibition of cell growth by CellTiter-Glo assay; assay type: toxicity, cell-based
[6] = species: Homo sapiens; assay: Selectivity ratio of Ki for human recombinant YEATS1 to Ki for human recombinant YEATS4
[7] = species: Homo sapiens; assay: Selectivity ratio of Ki for human recombinant YEATS2 to Ki for human recombinant YEATS4
[8] = species: Homo sapiens; assay: Selectivity ratio of Ki for human recombinant YEATS3 to Ki for human recombinant YEATS4
[9] = Lipophilicity, logD of the compound by shake flask method; assay type: physicochemical; conditions: octanol/water
[10] = target: T1, YEATS domain-containing protein 4; assay: Inhibition of N-terminal nanoLuc-tagged YEATS4 in HEK293T cells co-transfected with C-terminal halo-tagged histone 3.3 incubated for 24 hrs in presence of SAHA by NanoBRET assay; assay type: cell-based
[11] = Cytotoxicity against human Bone marrow cell assessed as reduction in cell viability measured after 7 days; assay type: toxicity, cell-based; conditions: bone marrow cells
[12] = target: T1, YEATS domain-containing protein 4; assay: Binding affinity to C-terminal biotin-tagged YEATS4 (unknown origin) by SPR analysis
[13] = target: T1, YEATS domain-containing protein 4; assay: Binding affinity to YEATS4 (unknown origin) assessed as dissociation constant by isothermal calorimetric analysis
[14] = Volume of distribution at steady state in rat at 1 mg/kg, iv; assay type: ADME, organism-based; conditions: in vivo, read-out: Vdss
[15] = Volume of distribution at steady state in mouse at 1 mg/kg, iv; assay type: ADME, organism-based; conditions: in vivo, read-out: Vdss
[16] = Half life in rat at 3 mg/kg, po; assay type: ADME, organism-based; conditions: in vivo
[17] = Half life in mouse at 3 mg/kg, po; assay type: ADME, organism-based; conditions: in vivo
[18] = Half life in mouse at 100 mg/kg, po; assay type: ADME, organism-based; conditions: in vivo
[19] = Cmax in rat at 3 mg/kg, po; assay type: ADME, organism-based; parameters: dose 3 mg/kg, route po; conditions: in vivo
[20] = Cmax in mouse at 3 mg/kg, po; assay type: ADME, organism-based; parameters: dose 3 mg/kg, route po; conditions: in vivo
[21] = Cmax in mouse at 100 mg/kg, po; assay type: ADME, organism-based; parameters: dose 100 mg/kg, route po; conditions: in vivo
[22] = AUC in rat at 3 mg/kg, po; assay type: ADME, organism-based; parameters: dose 3 mg/kg, route po; conditions: in vivo
[23] = AUC in mouse at 3 mg/kg, po; assay type: ADME, organism-based; parameters: dose 3 mg/kg, route po; conditions: in vivo
[24] = AUC in mouse at 100 mg/kg, po; assay type: ADME, organism-based; parameters: dose 100 mg/kg, route po; conditions: in vivo
[25] = Tmax in rat at 3 mg/kg, po; assay type: ADME, organism-based; conditions: in vivo
[26] = Tmax in mouse at 3 mg/kg, po; assay type: ADME, organism-based; conditions: in vivo
[27] = Tmax in mouse at 100 mg/kg, po; assay type: ADME, organism-based; conditions: in vivo
[28] = Oral bioavailability in rat at 3 mg/kg; assay type: ADME, organism-based; conditions: in vivo
[29] = Oral bioavailability in mouse at 3 mg/kg; assay type: ADME, organism-based; conditions: in vivo
[30] = target: T1, YEATS domain-containing protein 4; assay: Binding affinity to YEATS4 (unknown origin) assessed as change in enthalpy by isothermal calorimetric analysis
[31] = target: T1, YEATS domain-containing protein 4; assay: Binding affinity to YEATS4 (unknown origin) assessed as change in entropy by isothermal calorimetric analysis
[32] = target: T2, Protein AF-9 (Homo sapiens, UniProt P42568); assay: Inhibition of N-terminal nanoLuc-tagged YEATS3 in HEK293T cells co-transfected with C-terminal halo-tagged histone 3.3 incubated for 24 hrs in presence of SAHA by NanoBRET assay; assay type: cell-based
T2 sequence (P42568 whole entry): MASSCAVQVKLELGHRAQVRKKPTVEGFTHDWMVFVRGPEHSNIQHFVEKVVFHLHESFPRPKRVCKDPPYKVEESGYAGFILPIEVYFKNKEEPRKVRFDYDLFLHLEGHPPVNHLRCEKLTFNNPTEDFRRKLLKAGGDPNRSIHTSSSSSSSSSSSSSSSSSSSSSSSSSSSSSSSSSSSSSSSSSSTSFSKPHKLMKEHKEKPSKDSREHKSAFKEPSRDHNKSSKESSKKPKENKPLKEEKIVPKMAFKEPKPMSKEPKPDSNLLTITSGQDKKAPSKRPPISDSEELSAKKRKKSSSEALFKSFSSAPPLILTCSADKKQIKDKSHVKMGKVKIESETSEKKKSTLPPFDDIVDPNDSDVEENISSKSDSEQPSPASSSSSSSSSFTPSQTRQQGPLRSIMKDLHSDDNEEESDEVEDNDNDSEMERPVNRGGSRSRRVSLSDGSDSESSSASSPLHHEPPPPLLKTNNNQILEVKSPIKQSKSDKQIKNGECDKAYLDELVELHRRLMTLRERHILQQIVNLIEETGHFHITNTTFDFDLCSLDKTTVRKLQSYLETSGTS

CCNC(=O)c1ccc2c(c1)nc(C(F)F)n2[C@H]1CCN(CC2(O)CCCCC2)C[C@@H]1C
Ki [1]: 59 nM | Papp [2]: 0.271 ×10⁻⁶ cm/s | hepatocyte CLint [3]: 12.8 µL/min/1e6 cells | Ki [4]: 35400 nM | IC50 [5]: > 300000 nM | Ratio Ki [6]: 19 | Ratio Ki [7]: 17 | Ratio Ki [8]: 14 | logD [9]: 3.1 | IC50 [10]: 730 nM | IC50 at 7 days [11]: > 50 nM | Kd [12]: 297 nM | Kd [13]: 45 nM | Vd [14]: 2.6 L/kg | Vd [15]: 7.8 L/kg | half-life [16]: 1.4 h | half-life [17]: 4.9 h | half-life [18]: 1.2 h | Cmax [19]: 487 ng/mL | Cmax [20]: 1000 ng/mL | Cmax [21]: 14000 ng/mL | AUC [22]: 1150 ng·min/mL | AUC [23]: 2150 ng·min/mL | AUC [24]: 675 ng·h/mL | Tmax [25]: 0.4 h | Tmax [26]: 0.3 h | Tmax [27]: 0.8 h | F [28]: 46% | F [29]: 68%

CCNC(=O)c1ccc2c(C3CCN(CC4(O)CCCCC4)CC3)c(C)nn2c1
Ki [1]: 56 nM | Papp [2]: 0.246 ×10⁻⁶ cm/s | hepatocyte CLint [3]: 3.2 µL/min/1e6 cells | Ki [4]: 4640 nM | IC50 [5]: > 300000 nM | Ratio Ki [6]: 20 | Ratio Ki [7]: 16 | Ratio Ki [8]: 23 | logD [9]: 2

CCNC(=O)c1ccc2c(c1)nc(C)n2[C@H]1CCN(CC2(O)CCCCC2)C[C@@H]1C
Ki [1]: 63 nM | Papp [2]: 0.119 ×10⁻⁶ cm/s | hepatocyte CLint [3]: 5.9 µL/min/1e6 cells | Ki [4]: 22300 nM | IC50 [5]: > 300000 nM | Ratio Ki [6]: 16 | Ratio Ki [7]: 17 | Ratio Ki [8]: 12 | logD [9]: 2.4 | IC50 [10]: 290 nM | IC50 at 7 days [11]: > 100 nM | Kd [12]: 530 nM | Kd [13]: 80 nM

CCNC(=O)c1ccc2c(c1)[nH]c(=O)n2C1CCN(CC2(O)CCCCC2)CC1
Ki [1]: 284 nM | Papp [2]: 0.021 ×10⁻⁶ cm/s | hepatocyte CLint [3]: 3.2 µL/min/1e6 cells | Ki [4]: 40200 nM | IC50 [5]: > 300000 nM | Ratio Ki [6]: 8 | Ratio Ki [7]: 14 | Ratio Ki [8]: 7 | logD [9]: 1.7

CCNC(=O)c1ccc2c(C3CCN(CC4(O)CCCCC4)CC3)c(-c3cccn(C)c3=O)nn2c1
Ki [1]: 69 nM | Papp [2]: 0.006 ×10⁻⁶ cm/s | hepatocyte CLint [3]: < 1.8 µL/min/1e6 cells | Ki [4]: 36100 nM | IC50 [5]: > 300000 nM | Ratio Ki [6]: 19 | Ratio Ki [7]: 4 | Ratio Ki [8]: 15 | logD [9]: 0.09

COC1(CN2CC[C@H](c3c(C)nn4cc(C(=O)NCC5CC5)ccc34)[C@@H](C)C2)CCOCC1
Ki [1]: 57 nM | Papp [2]: 0.248 ×10⁻⁶ cm/s | hepatocyte CLint [3]: 16.4 µL/min/1e6 cells | Ki [4]: 16600 nM | IC50 [5]: > 300000 nM | Ratio Ki [6]: 213 | Ratio Ki [7]: 49 | Ratio Ki [8]: 160 | logD [9]: 2.8

CCNC(=O)c1ccc2c(c1)nc(C)n2C1CCN(CC2(O)CCCCC2)CC1
Ki [1]: 141 nM | Papp [2]: 0.108 ×10⁻⁶ cm/s | hepatocyte CLint [3]: 2.4 µL/min/1e6 cells | Ki [4]: 28900 nM | IC50 [5]: > 300000 nM | Ratio Ki [6]: 19 | Ratio Ki [7]: 11 | Ratio Ki [8]: 16 | logD [9]: 1.9

CCNC(=O)c1ccc2c([C@H]3CCN(CC4(O)CCOCC4)C[C@@H]3C)c(C)nn2c1
Ki [1]: 37 nM | Papp [2]: 0.093 ×10⁻⁶ cm/s | hepatocyte CLint [3]: < 1.8 µL/min/1e6 cells | Ki [4]: 66600 nM | IC50 [5]: > 300000 nM | Ratio Ki [6]: 35 | Ratio Ki [7]: 15 | Ratio Ki [8]: 27 | logD [9]: 1.6 | IC50 [10]: 300 nM | IC50 at 7 days [11]: > 50 nM | Kd [13]: 30 nM | deltaH [30]: 13.3 kcal/mol | deltaH [31]: -11.1 cal/mol.K

CCNC(=O)c1ccc2c([C@H]3CCN(CC4(O)CCCCC4)C[C@@H]3C)c(C)nn2c1
IC50 [32]: 2980 nM | Ki [1]: 33 nM | Papp [2]: 0.26 ×10⁻⁶ cm/s | hepatocyte CLint [3]: 4.1 µL/min/1e6 cells | Ki [4]: 4640 nM | IC50 [5]: > 300000 nM | Ratio Ki [6]: 15 | Ratio Ki [7]: 10 | Ratio Ki [8]: 14 | logD [9]: 2.5 | IC50 [10]: 170 nM | IC50 at 7 days [11]: > 50 nM | Kd [12]: 340 nM | Kd [13]: 52.7 nM | deltaH [30]: -15.1 kcal/mol | deltaH [31]: -17.4 cal/mol.K | half-life [18]: 1.2 h | Cmax [21]: 9140 ng/mL | AUC [24]: 412 ng·h/mL | Tmax [27]: 0.5 h

Cc1nn2cc(C(=O)NCC3CC3)ccc2c1[C@H]1CCN(CC2(O)CCOCC2)C[C@@H]1C
Ki [1]: 43 nM | Papp [2]: 0.154 ×10⁻⁶ cm/s | hepatocyte CLint [3]: < 1.8 µL/min/1e6 cells | Ki [4]: 7380 nM | IC50 [5]: 269000 nM | Ratio Ki [6]: 133 | Ratio Ki [7]: 16 | Ratio Ki [8]: 106 | logD [9]: 2

CCNC(=O)c1ccc2c(c1)nc(-c1cccn(C)c1=O)n2[C@H]1CCN(CC2(O)CCCCC2)C[C@@H]1C
Ki [1]: 33 nM | Papp [2]: 0.004 ×10⁻⁶ cm/s | hepatocyte CLint [3]: < 1.8 µL/min/1e6 cells | Ki [4]: > 100000 nM | IC50 [5]: > 300000 nM | Ratio Ki [6]: 5 | Ratio Ki [7]: 2 | Ratio Ki [8]: 4 | logD [9]: 1.7

CCNC(=O)c1ccc2c(C3CCN(CC4(O)C5CC6CC(C5)CC4C6)CC3)c(C)nn2c1 (configuration not stated)
Ki [1]: 21 nM | Papp [2]: 0.331 ×10⁻⁶ cm/s | hepatocyte CLint [3]: 33.7 µL/min/1e6 cells | Ki [4]: 3430 nM | IC50 [5]: 123000 nM | Ratio Ki [6]: 19 | Ratio Ki [7]: 7 | Ratio Ki [8]: 25 | logD [9]: 3.2 | IC50 ([10]; hek293t): 200 nM | IC50 at 7 days [11]: 22 nM | Kd [12]: 103 nM | Kd [13]: 53 nM
